Data on three substances can be found in patent publication US20120264691 (published 2012).

Data set [1] is described as follows: 0.1M HCl aqueous solution (pH: 1.1). Particulars: 25±2° C., up to 72 hours.
Data set [2] in a line: Britton-Robinson buffer solution (pH 7.0). To be noted: 40±1° C.
A short description of data set [3]: Mcllvain buffer solutions (pH: 2.0, 3.0, 4.0, 5.0, 6.0, 7.0, 8.0). Particulars: 25±2° C., up to 72 hours.
Data set [4] in a line: Britton-Robinson buffer solutions having pH of 2.1, 3.1, 4.0, 5.0, 6.0, 7.0 and 7.9. To be noted: 40±1° C., up to 1 day.
Data set [5] can be described thus: purified water, pH 4.7, or adjusted to pH 1.8, 3.9 (hydrochloric acid) and 7.8 (sodium hydroxide). Particulars: 25±2° C., up to 3 day.

“Also recorded” adds a separate entry of the source.

Take “GSS(n-octanoyl)FLSPEHQRVQQRKESKKPPAKLQPR”: the cleaved bond result in data set [1] was “hydrolytic cleavage of octanoyl group, 8 hr”; in data set [2] (up to 14 days), “hydrolytic cleavage of octanoyl group of human ghrelin, major, 4 days; also recorded: β-elimination of octanoyl group of human ghrelin, major, 4 days”; in data set [3] it was “hydrolytic cleavage of octanoyl group, 8 hr”; in data set [4] it was “hydrolytic cleavage of octanoyl group, 1 day”; in data set [5], “hydrolytic cleavage of octanoyl group, 1 day”. The fragment found entry was “degradation product D = desacyl human ghrelin (3-28), 14 days; also recorded: degradation product E = [N^α—CO—C(═CH2)—OH]human ghrelin(4-28), 14 days” in data set [2] (up to 14 days) and “Dha compound, 1 day” in data set [5].

Turning to [3-Dehydroalanine]human ghrelin, the fragment found entry in data set [2] (up to 3 days) is “[N^α—CO—C(═CH2)—OH]human ghrelin(4-28) (2nd degradation product of Dha compound), 3 days”.

As to desacylated human ghrelin, in data set [2] (up to 14 days), the fragment found entry is reported as “desacyl human ghrelin (3-28), major, 14 days”.
